Patent US5552422A, “Aryl substituted 5,5 fused aromatic nitrogen compounds as anti-inflammatory agents” (Merck Frosst Canada, Inc., priority 1995, dated 1996)

Columns and labels:
rat paw edema = settings: po, carrageenan paw edema, 3 hr
Protocol: Male Sprague-Dawley rats (150-200 g) were fasted overnight and were given po either vehicle (1% methocel or 5% Tween 80) or a test compound. One hr later, a line was drawn using a permanent marker at the level above the ankle in one hind paw to define the area of the paw to be monitored. The paw volume (V0) was measured using a plethysmometer (Ugo-Basile, Italy) based on the principle of water displacement. The animals were then injected subplantarly with 50 μl of 1% carrageenan solution in saline (FMC Corp, Maine) into the paw using an insulin syringe with a 25-gauge needle (i.e., 500 μg carrageenan per paw). Three hr later, the paw volume (V3) was measured and the increases in paw volume (V3 -V0) were calculated. The animals were sacrificed by CO2 aphyxiation and the absence or presence of stomach lesions scored. Data were compared with the vehicle-control values and percent inhibition calculated. […] All treatment groups were coded to eliminate observer bias.

Cox-1 = biological target: T1, Cox-1 (Homo sapiens, UniProt P23219); assay: Human whole blood assay, Cox-1 (clotting-induced TxB2 production); format: cell-based; settings: TxB2 following blood clotting
T1 construct: platelets in whole blood contain a large amount of the Cox-1 enzyme; endogenous in cells; host or cells: platelets in fresh human whole blood (clotting)
Protocol: (§1) Immediately following blood clotting, platelets are activated through a thrombin-mediated mechanism.
Aliquots of 500 μL were immediately transferred to siliconized microcentrifuge tubes preloaded with 2 μL of either DMSO or a test compound at final concentrations varying from 10 nM to 30 μM. The tubes were vortexed and incubated at 37° C. for 1 hour to allow blood to clot.
(§2) In the assay, inhibition is determined by measuring the amount of prostaglandin E2 (PGE2) synthesized in the presence of arachidonic acid, cyclooxygenase-1 or cyclooxygenase-2 and a putative inhibitor.

Cox-2 = biological target: T2, Cox-2 (Homo sapiens, UniProt P35354); assay: Human whole blood assay, Cox-2 (LPS-induced PGE2 production); format: cell-based; settings: PGE2 after LPS induction, 24 hours
T2 construct: incubation of human whole blood with LPS (lipopoly saccharide), which induces Cox-2; endogenous in cells
T2 sequence (P35354 18-604): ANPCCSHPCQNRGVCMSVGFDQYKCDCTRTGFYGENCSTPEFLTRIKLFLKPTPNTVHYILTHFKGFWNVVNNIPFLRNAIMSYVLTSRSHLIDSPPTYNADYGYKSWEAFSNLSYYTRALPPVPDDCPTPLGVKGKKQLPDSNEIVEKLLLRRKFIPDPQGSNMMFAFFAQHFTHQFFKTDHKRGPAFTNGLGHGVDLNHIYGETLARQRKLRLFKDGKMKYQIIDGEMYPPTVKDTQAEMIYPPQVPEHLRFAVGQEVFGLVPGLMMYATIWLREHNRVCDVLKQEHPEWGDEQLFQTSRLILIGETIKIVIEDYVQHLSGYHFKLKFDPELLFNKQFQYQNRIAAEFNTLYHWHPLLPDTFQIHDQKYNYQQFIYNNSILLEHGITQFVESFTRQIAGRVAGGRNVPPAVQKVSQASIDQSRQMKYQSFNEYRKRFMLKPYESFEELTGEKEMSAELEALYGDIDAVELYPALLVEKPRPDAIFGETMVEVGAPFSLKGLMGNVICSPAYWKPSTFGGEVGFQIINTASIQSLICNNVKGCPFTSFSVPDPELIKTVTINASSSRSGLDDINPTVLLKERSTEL
Protocol: as §1
Fresh blood was collected in heparinized tubes by venipuncture from both male and female volunteers. The subjects had no apparent inflammatory conditions and had not taken any NSAIDs for at least 7 days prior to blood collection. Plasma was immediately obtained from a 2 mL blood aliquot to use as blank (basal levels of PGE2).
as §2

T1 sequence (P23219 24-599): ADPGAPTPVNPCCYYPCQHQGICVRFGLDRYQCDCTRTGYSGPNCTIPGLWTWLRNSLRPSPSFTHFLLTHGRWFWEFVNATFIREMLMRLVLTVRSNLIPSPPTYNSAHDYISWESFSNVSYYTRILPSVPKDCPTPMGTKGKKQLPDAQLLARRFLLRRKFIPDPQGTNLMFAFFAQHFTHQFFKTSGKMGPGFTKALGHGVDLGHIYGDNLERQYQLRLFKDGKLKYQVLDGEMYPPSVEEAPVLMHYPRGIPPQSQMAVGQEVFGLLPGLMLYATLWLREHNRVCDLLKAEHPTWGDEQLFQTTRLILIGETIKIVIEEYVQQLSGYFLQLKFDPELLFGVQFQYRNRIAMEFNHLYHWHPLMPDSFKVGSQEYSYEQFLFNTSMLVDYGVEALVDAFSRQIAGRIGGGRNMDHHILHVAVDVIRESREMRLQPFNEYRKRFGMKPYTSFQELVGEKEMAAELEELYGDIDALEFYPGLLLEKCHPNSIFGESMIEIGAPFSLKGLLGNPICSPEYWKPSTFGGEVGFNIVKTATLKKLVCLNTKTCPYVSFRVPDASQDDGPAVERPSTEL

| Structure (SMILES) | ED50 (rat paw edema) | IC50 (Cox-1) | IC50 (Cox-2) |
| --- | --- | --- | --- |
| COc1ccc2c(c1)c(CC(=O)O)c(C)n2C(=O)c1ccc(Cl)cc1 [Indomethacin, indomethacin] | 2 mg/kg | – | – |
| CS(=O)(=O)c1ccc(-c2c(-c3ccccc3)nc3sccn23)cc1 [Example 1, 5-(4-(Methylsulfonyl)phenyl)-6-phenylimidazo[2,1-b]thiazole] | – | > 30000 nM | 330 nM |
